± gives the expanded uncertainty stated by the source.
What was measured:
[1] = 101 kPa, Liquid, Vibrating tube method
[2] = refractive index (Na D-line) (dimensionless); details: 101.33 kPa, Liquid, Standard Abbe refractometry
[3] = xn = mol fraction of the nth substance listed; details: 101 kPa, Liquid, Vibrating tube method, x1 = 1
[4] = refractive index (Na D-line) (dimensionless); xn = mol fraction of the nth substance listed; details: 101 kPa, Liquid, Standard Abbe refractometry, x1 = 1

## CC(C)(C)O [2-methylpropan-2-ol]
[1]; 303.15 K
  mass density: 775.412 ± 0.14 kg/m3
[1]; 308.15 K
  mass density: 770.193 ± 0.15 kg/m3
[1]; 313.15 K
  mass density: 764.884 ± 0.15 kg/m3
[1]; 318.15 K
  mass density: 759.488 ± 0.15 kg/m3
[1]; 323.15 K
  mass density: 754.015 ± 0.15 kg/m3
[2]; 303.15 K
  refractive index: 1.38222 ± 0.00035
[2]; 308.15 K
  refractive index: 1.37947 ± 0.00035
[2]; 313.15 K
  refractive index: 1.37667 ± 0.00035
[2]; 318.15 K
  refractive index: 1.37384 ± 0.00035
[2]; 323.15 K
  refractive index: 1.37097 ± 0.00035

## CC(C)(C)O [2-methylpropan-2-ol] + C1CCC(NC2CCCCC2)CC1
[3]; 303.15 K
  mass density: 775.412 ± 0.14 kg/m3
[3]; 308.15 K
  mass density: 770.193 ± 0.15 kg/m3
[3]; 313.15 K
  mass density: 764.884 ± 0.15 kg/m3
[3]; 318.15 K
  mass density: 759.488 ± 0.15 kg/m3
[3]; 323.15 K
  mass density: 754.015 ± 0.15 kg/m3
[4]; 303.15 K
  refractive index: 1.38222 ± 0.00035
[4]; 308.15 K
  refractive index: 1.37947 ± 0.00035
[4]; 313.15 K
  refractive index: 1.37667 ± 0.00035
[4]; 318.15 K
  refractive index: 1.37384 ± 0.00035
[4]; 323.15 K
  refractive index: 1.37097 ± 0.00035

## C1CCC(NC2CCCCC2)CC1 [N-cyclohexylcyclohexanamine]
[1]; 288.15 K
  mass density: 915.498 ± 0.23 kg/m3
[1]; 293.15 K
  mass density: 911.705 ± 0.23 kg/m3
[1]; 298.15 K
  mass density: 907.923 ± 0.23 kg/m3
[1]; 303.15 K
  mass density: 904.144 ± 0.23 kg/m3
[1]; 308.15 K
  mass density: 900.372 ± 0.23 kg/m3
[1]; 313.15 K
  mass density: 896.608 ± 0.23 kg/m3
[1]; 318.15 K
  mass density: 892.847 ± 0.23 kg/m3
[1]; 323.15 K
  mass density: 889.089 ± 0.23 kg/m3
[2]; 288.15 K
  refractive index: 1.48636 ± 0.0004
[2]; 293.15 K
  refractive index: 1.48416 ± 0.0004
[2]; 298.15 K
  refractive index: 1.48198 ± 0.0004
[2]; 303.15 K
  refractive index: 1.47978 ± 0.0004
[2]; 308.15 K
  refractive index: 1.47761 ± 0.0004
[2]; 313.15 K
  refractive index: 1.47562 ± 0.0004
[2]; 318.15 K
  refractive index: 1.47347 ± 0.0004
[2]; 323.15 K
  refractive index: 1.47134 ± 0.0004

## CCCCO [butan-1-ol]
[1]; 288.15 K
  mass density: 813.373 ± 0.14 kg/m3
[1]; 293.15 K
  mass density: 809.573 ± 0.14 kg/m3
[1]; 298.15 K
  mass density: 805.762 ± 0.15 kg/m3
[1]; 303.15 K
  mass density: 801.923 ± 0.15 kg/m3
[1]; 308.15 K
  mass density: 798.053 ± 0.15 kg/m3
[1]; 313.15 K
  mass density: 794.147 ± 0.15 kg/m3
[1]; 318.15 K
  mass density: 790.231 ± 0.15 kg/m3
[1]; 323.15 K
  mass density: 786.238 ± 0.15 kg/m3
[2]; 288.15 K
  refractive index: 1.40135 ± 0.00036
[2]; 293.15 K
  refractive index: 1.39932 ± 0.00036
[2]; 298.15 K
  refractive index: 1.3973 ± 0.00036
[2]; 303.15 K
  refractive index: 1.39523 ± 0.00036
[2]; 308.15 K
  refractive index: 1.39318 ± 0.00036
[2]; 313.15 K
  refractive index: 1.3911 ± 0.00036
[2]; 318.15 K
  refractive index: 1.38901 ± 0.00036
[2]; 323.15 K
  refractive index: 1.38688 ± 0.00036

## CCCCO [butan-1-ol] + C1CCC(NC2CCCCC2)CC1
[3]; 288.15 K
  mass density: 813.373 ± 0.14 kg/m3
[3]; 293.15 K
  mass density: 809.573 ± 0.14 kg/m3
[3]; 298.15 K
  mass density: 805.762 ± 0.15 kg/m3
[3]; 303.15 K
  mass density: 801.923 ± 0.15 kg/m3
[3]; 308.15 K
  mass density: 798.053 ± 0.15 kg/m3
[3]; 313.15 K
  mass density: 794.147 ± 0.15 kg/m3
[3]; 318.15 K
  mass density: 790.231 ± 0.15 kg/m3
[3]; 323.15 K
  mass density: 786.238 ± 0.15 kg/m3
[4]; 288.15 K
  refractive index: 1.40135 ± 0.00036
[4]; 293.15 K
  refractive index: 1.39932 ± 0.00036
[4]; 298.15 K
  refractive index: 1.3973 ± 0.00036
[4]; 303.15 K
  refractive index: 1.39523 ± 0.00036
[4]; 308.15 K
  refractive index: 1.39318 ± 0.00036
[4]; 313.15 K
  refractive index: 1.3911 ± 0.00036
[4]; 318.15 K
  refractive index: 1.38901 ± 0.00036
[4]; 323.15 K
  refractive index: 1.38688 ± 0.00036

## CCC(C)O (centres undefined) [butan-2-ol]
[1]; 288.15 K
  mass density: 810.689 ± 0.24 kg/m3
[1]; 293.15 K
  mass density: 806.646 ± 0.24 kg/m3
[1]; 298.15 K
  mass density: 802.528 ± 0.24 kg/m3
[1]; 303.15 K
  mass density: 798.326 ± 0.24 kg/m3
[1]; 308.15 K
  mass density: 794.03 ± 0.24 kg/m3
[1]; 313.15 K
  mass density: 789.632 ± 0.24 kg/m3
[1]; 318.15 K
  mass density: 785.117 ± 0.24 kg/m3
[1]; 323.15 K
  mass density: 780.515 ± 0.24 kg/m3
[2]; 288.15 K
  refractive index: 1.39951 ± 0.0004
[2]; 293.15 K
  refractive index: 1.39736 ± 0.0004
[2]; 298.15 K
  refractive index: 1.39515 ± 0.0004
[2]; 303.15 K
  refractive index: 1.39293 ± 0.0004
[2]; 308.15 K
  refractive index: 1.39064 ± 0.0004
[2]; 313.15 K
  refractive index: 1.38832 ± 0.0004
[2]; 318.15 K
  refractive index: 1.38596 ± 0.0004
[2]; 323.15 K
  refractive index: 1.38352 ± 0.0004

## CCC(C)O (centres undefined) [butan-2-ol] + C1CCC(NC2CCCCC2)CC1
[3]; 288.15 K
  mass density: 810.689 ± 0.24 kg/m3
[3]; 293.15 K
  mass density: 806.646 ± 0.24 kg/m3
[3]; 298.15 K
  mass density: 802.528 ± 0.24 kg/m3
[3]; 303.15 K
  mass density: 798.326 ± 0.24 kg/m3
[3]; 308.15 K
  mass density: 794.03 ± 0.24 kg/m3
[3]; 313.15 K
  mass density: 789.632 ± 0.24 kg/m3
[3]; 318.15 K
  mass density: 785.117 ± 0.24 kg/m3
[3]; 323.15 K
  mass density: 780.515 ± 0.24 kg/m3
[4]; 288.15 K
  refractive index: 1.39951 ± 0.0004
[4]; 293.15 K
  refractive index: 1.39736 ± 0.0004
[4]; 298.15 K
  refractive index: 1.39515 ± 0.0004
[4]; 303.15 K
  refractive index: 1.39293 ± 0.0004
[4]; 308.15 K
  refractive index: 1.39064 ± 0.0004
[4]; 313.15 K
  refractive index: 1.38832 ± 0.0004
[4]; 318.15 K
  refractive index: 1.38596 ± 0.0004
[4]; 323.15 K
  refractive index: 1.38352 ± 0.0004

## CCCCCO [pentan-1-ol]
[1]; 288.15 K
  mass density: 818.282 ± 0.24 kg/m3
[1]; 293.15 K
  mass density: 814.635 ± 0.24 kg/m3
[1]; 298.15 K
  mass density: 810.968 ± 0.24 kg/m3
[1]; 303.15 K
  mass density: 807.278 ± 0.24 kg/m3
[1]; 308.15 K
  mass density: 803.558 ± 0.24 kg/m3
[1]; 313.15 K
  mass density: 799.817 ± 0.24 kg/m3
[1]; 318.15 K
  mass density: 796.001 ± 0.24 kg/m3
[1]; 323.15 K
  mass density: 792.166 ± 0.24 kg/m3
[2]; 288.15 K
  refractive index: 1.41192 ± 0.0004
[2]; 293.15 K
  refractive index: 1.40994 ± 0.0004
[2]; 298.15 K
  refractive index: 1.40796 ± 0.0004
[2]; 303.15 K
  refractive index: 1.40595 ± 0.0004
[2]; 308.15 K
  refractive index: 1.40388 ± 0.0004
[2]; 313.15 K
  refractive index: 1.40189 ± 0.0004
[2]; 318.15 K
  refractive index: 1.39987 ± 0.0004
[2]; 323.15 K
  refractive index: 1.39776 ± 0.0004

## CCCCCO [pentan-1-ol] + C1CCC(NC2CCCCC2)CC1
[3]; 288.15 K
  mass density: 818.282 ± 0.24 kg/m3
[3]; 293.15 K
  mass density: 814.635 ± 0.24 kg/m3
[3]; 298.15 K
  mass density: 810.968 ± 0.24 kg/m3
[3]; 303.15 K
  mass density: 807.278 ± 0.24 kg/m3
[3]; 308.15 K
  mass density: 803.558 ± 0.24 kg/m3
[3]; 313.15 K
  mass density: 799.817 ± 0.24 kg/m3
[3]; 318.15 K
  mass density: 796.001 ± 0.24 kg/m3
[3]; 323.15 K
  mass density: 792.166 ± 0.24 kg/m3
[4]; 288.15 K
  refractive index: 1.41192 ± 0.0004
[4]; 293.15 K
  refractive index: 1.40994 ± 0.0004
[4]; 298.15 K
  refractive index: 1.40796 ± 0.0004
[4]; 303.15 K
  refractive index: 1.40595 ± 0.0004
[4]; 308.15 K
  refractive index: 1.40388 ± 0.0004
[4]; 313.15 K
  refractive index: 1.40189 ± 0.0004
[4]; 318.15 K
  refractive index: 1.39987 ± 0.0004
[4]; 323.15 K
  refractive index: 1.39776 ± 0.0004

## CCCO [propan-1-ol]
[1]; 288.15 K
  mass density: 807.69 ± 0.15 kg/m3
[1]; 293.15 K
  mass density: 803.703 ± 0.15 kg/m3
[1]; 298.15 K
  mass density: 799.692 ± 0.15 kg/m3
[1]; 303.15 K
  mass density: 795.65 ± 0.15 kg/m3
[1]; 308.15 K
  mass density: 791.576 ± 0.15 kg/m3
[1]; 313.15 K
  mass density: 787.466 ± 0.15 kg/m3
[1]; 318.15 K
  mass density: 783.309 ± 0.15 kg/m3
[1]; 323.15 K
  mass density: 779.095 ± 0.16 kg/m3
[2]; 288.15 K
  refractive index: 1.38785 ± 0.00036
[2]; 293.15 K
  refractive index: 1.38578 ± 0.00036
[2]; 298.15 K
  refractive index: 1.38364 ± 0.00036
[2]; 303.15 K
  refractive index: 1.38153 ± 0.00036
[2]; 308.15 K
  refractive index: 1.37929 ± 0.00036
[2]; 313.15 K
  refractive index: 1.37702 ± 0.00036
[2]; 318.15 K
  refractive index: 1.37483 ± 0.00036
[2]; 323.15 K
  refractive index: 1.37252 ± 0.00036

## CCCO [propan-1-ol] + C1CCC(NC2CCCCC2)CC1
[3]; 288.15 K
  mass density: 807.69 ± 0.15 kg/m3
[3]; 293.15 K
  mass density: 803.703 ± 0.15 kg/m3
[3]; 298.15 K
  mass density: 799.692 ± 0.15 kg/m3
[3]; 303.15 K
  mass density: 795.65 ± 0.15 kg/m3
[3]; 308.15 K
  mass density: 791.576 ± 0.15 kg/m3
[3]; 313.15 K
  mass density: 787.466 ± 0.15 kg/m3
[3]; 318.15 K
  mass density: 783.309 ± 0.15 kg/m3
[3]; 323.15 K
  mass density: 779.095 ± 0.16 kg/m3
[4]; 288.15 K
  refractive index: 1.38785 ± 0.00036
[4]; 293.15 K
  refractive index: 1.38578 ± 0.00036
[4]; 298.15 K
  refractive index: 1.38364 ± 0.00036
[4]; 303.15 K
  refractive index: 1.38153 ± 0.00036
[4]; 308.15 K
  refractive index: 1.37929 ± 0.00036
[4]; 313.15 K
  refractive index: 1.37702 ± 0.00036
[4]; 318.15 K
  refractive index: 1.37483 ± 0.00036
[4]; 323.15 K
  refractive index: 1.37252 ± 0.00036

Source: the NIST ThermoML archive (doi:10.1016/j.tca.2011.08.002)
